# Assays:
# Assay in all cases: biochemical
# Parameters in all cases: DiscoverX KINOMEscan scanMAX competition binding panel, single concentration, percent of control; remaining binding: dose or concentration left out as unconfirmed
# Conditions in all cases: KINOMEscan binding, percent of control; read-out: Table S4_SCANMAX REPORT - related to Fig. 1 / Percent Control
# ASK1 = target: T1, ASK1 (Homo sapiens, UniProt Q99683)
# T1 construct: gene MAP3K5
# CDC2L2 = target: T2, CDC2L2 (Homo sapiens, UniProt Q9UQ88)
# T2 construct: gene CDK11A
# DAPK2 = DAPK2 (Homo sapiens, UniProt Q9UIK4)
# EGFR(E746-A750del) = EGFR(E746-A750del) (Homo sapiens, UniProt P00533, DEL746-750)
# EGFR(L747-T751del,Sins) = EGFR(L747-T751del,Sins) (Homo sapiens, UniProt P00533, DEL747-750/T751S)
# FGR = FGR (Homo sapiens, UniProt P09769)
# HIPK4 = HIPK4 (Homo sapiens, UniProt Q8NE63)
# LYN = LYN (Homo sapiens, UniProt P07948)
# MAPKAPK2 = MAPKAPK2 (Homo sapiens, UniProt P49137)
# MET(Y1235D) = MET(Y1235D) (Homo sapiens, UniProt P08581, Y1235D)
# MKK7 = target: T3, MKK7 (Homo sapiens, UniProt O14733)
# T3 construct: gene MAP2K7
# NDR1 = target: T4, NDR1 (Homo sapiens, UniProt Q15208)
# T4 construct: gene STK38
# NIM1 = target: T5, NIM1 (Homo sapiens, UniProt Q8IY84)
# T5 construct: gene NIM1K
# PAK1 = PAK1 (Homo sapiens, UniProt Q13153)
# PIK3CB = PIK3CB (Homo sapiens, UniProt P42338)
# PIM3 = PIM3 (Homo sapiens, UniProt Q86V86)
# RET = RET (Homo sapiens, UniProt P07949)
# TAOK3 = TAOK3 (Homo sapiens, UniProt Q9H2K8)
# T3 sequence (O14733 whole entry): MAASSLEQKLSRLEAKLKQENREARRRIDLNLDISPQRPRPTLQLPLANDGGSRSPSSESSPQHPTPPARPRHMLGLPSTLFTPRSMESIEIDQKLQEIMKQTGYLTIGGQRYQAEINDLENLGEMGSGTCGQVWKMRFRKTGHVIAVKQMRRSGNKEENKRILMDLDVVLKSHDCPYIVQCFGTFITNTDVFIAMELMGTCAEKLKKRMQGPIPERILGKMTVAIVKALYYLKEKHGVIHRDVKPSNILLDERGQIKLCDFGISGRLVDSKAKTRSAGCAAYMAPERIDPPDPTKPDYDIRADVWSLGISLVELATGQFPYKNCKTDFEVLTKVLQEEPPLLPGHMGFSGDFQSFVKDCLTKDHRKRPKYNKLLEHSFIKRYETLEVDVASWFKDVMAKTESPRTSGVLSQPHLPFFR
# MAPKAPK2, sequence (P49137 whole entry): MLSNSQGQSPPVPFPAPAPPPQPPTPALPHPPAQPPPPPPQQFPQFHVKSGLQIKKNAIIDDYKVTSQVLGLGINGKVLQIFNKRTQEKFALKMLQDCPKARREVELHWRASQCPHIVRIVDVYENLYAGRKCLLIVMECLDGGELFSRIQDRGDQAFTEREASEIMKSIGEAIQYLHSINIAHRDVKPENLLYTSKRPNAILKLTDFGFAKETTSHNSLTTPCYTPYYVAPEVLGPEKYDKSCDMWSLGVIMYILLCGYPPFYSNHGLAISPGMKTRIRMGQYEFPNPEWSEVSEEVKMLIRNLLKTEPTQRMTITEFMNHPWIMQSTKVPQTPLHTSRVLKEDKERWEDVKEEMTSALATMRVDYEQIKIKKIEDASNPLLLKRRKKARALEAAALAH
# DAPK2, sequence (Q9UIK4 whole entry): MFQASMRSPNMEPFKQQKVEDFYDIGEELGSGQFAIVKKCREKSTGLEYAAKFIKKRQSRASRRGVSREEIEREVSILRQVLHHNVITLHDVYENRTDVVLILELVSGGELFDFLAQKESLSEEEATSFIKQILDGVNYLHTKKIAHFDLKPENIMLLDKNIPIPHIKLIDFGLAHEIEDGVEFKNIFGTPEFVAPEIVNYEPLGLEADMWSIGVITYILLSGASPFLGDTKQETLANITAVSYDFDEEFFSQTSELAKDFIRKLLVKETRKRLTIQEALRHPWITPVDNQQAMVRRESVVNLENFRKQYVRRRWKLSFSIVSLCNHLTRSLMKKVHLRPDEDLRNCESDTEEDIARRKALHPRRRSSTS
# EGFR(E746-A750del), sequence (P00533 with tags, fused parts or gaps DEL746-750): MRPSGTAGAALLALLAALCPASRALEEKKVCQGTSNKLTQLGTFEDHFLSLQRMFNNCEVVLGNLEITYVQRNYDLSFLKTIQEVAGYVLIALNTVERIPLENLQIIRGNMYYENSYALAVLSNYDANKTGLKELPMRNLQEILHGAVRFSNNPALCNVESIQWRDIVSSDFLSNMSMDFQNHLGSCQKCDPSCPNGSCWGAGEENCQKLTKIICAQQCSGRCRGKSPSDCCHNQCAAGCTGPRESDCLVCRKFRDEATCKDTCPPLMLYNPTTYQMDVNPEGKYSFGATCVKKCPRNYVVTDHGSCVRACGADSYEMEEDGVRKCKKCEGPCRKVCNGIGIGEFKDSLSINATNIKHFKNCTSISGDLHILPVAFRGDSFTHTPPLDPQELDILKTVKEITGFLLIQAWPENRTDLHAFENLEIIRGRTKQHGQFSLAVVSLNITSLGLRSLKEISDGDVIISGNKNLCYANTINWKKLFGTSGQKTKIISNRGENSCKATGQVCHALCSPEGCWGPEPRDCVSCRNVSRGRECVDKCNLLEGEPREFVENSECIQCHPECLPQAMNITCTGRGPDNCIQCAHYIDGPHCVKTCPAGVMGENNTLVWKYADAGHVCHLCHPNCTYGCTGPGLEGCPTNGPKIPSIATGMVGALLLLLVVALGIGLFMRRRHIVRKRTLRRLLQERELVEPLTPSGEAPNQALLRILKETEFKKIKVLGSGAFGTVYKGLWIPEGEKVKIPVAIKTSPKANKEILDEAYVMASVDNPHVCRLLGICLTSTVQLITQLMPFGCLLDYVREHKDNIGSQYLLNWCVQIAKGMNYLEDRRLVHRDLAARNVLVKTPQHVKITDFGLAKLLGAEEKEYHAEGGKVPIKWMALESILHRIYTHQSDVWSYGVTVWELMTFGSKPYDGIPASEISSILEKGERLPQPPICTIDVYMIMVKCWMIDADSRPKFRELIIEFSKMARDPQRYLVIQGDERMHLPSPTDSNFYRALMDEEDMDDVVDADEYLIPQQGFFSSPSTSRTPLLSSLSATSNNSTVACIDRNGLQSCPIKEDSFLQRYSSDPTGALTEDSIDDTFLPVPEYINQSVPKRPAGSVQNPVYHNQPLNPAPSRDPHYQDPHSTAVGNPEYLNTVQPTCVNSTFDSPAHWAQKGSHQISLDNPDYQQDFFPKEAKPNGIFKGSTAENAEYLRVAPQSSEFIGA
# T1 sequence (Q99683 whole entry): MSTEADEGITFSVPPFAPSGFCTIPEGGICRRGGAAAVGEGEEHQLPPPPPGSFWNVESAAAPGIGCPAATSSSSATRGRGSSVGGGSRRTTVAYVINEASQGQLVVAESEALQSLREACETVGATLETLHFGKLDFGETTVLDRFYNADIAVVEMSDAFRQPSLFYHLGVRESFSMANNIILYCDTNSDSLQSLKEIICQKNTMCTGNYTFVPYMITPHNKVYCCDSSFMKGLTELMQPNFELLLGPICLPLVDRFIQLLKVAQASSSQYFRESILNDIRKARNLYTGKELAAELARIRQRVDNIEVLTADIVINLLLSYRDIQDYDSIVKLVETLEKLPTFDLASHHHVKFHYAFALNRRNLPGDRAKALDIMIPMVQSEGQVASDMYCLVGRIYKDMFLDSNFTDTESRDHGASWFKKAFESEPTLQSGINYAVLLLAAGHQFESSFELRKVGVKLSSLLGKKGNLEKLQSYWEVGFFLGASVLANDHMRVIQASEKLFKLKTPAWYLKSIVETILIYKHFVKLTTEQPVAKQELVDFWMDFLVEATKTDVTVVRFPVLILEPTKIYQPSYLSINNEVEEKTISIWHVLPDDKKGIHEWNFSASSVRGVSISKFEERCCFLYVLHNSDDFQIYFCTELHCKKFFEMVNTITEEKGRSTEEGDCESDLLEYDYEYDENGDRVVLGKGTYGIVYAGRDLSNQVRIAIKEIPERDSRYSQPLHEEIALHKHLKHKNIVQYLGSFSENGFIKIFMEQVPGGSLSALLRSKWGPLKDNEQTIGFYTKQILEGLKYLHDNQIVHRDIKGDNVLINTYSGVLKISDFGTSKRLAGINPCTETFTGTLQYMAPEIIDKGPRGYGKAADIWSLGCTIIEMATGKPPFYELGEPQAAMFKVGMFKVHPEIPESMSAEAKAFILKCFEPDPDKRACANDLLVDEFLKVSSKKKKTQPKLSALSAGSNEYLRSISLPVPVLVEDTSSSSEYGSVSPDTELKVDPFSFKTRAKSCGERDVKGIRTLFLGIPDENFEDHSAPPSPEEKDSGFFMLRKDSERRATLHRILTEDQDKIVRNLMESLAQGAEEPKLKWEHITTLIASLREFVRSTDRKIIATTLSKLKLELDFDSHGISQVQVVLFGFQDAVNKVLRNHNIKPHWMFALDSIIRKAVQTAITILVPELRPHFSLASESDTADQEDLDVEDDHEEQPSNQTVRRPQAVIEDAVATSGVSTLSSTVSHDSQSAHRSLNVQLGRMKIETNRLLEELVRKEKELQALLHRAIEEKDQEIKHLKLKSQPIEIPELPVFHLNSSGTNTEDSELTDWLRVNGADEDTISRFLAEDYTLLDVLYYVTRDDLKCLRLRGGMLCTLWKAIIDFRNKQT
# PAK1, sequence (Q13153 whole entry): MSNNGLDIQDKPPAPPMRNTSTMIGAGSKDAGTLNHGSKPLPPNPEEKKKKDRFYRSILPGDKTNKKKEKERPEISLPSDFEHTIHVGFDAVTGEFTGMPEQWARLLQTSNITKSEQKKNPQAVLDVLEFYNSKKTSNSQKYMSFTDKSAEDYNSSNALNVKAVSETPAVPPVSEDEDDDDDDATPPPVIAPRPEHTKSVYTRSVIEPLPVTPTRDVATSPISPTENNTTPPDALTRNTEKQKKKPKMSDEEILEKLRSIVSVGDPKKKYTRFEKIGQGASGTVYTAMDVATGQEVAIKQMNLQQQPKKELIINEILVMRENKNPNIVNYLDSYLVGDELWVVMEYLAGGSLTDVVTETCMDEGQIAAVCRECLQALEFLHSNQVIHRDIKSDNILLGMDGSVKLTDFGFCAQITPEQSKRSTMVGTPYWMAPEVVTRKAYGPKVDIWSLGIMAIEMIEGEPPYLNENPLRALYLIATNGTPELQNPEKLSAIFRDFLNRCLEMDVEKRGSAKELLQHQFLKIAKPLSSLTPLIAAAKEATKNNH
# FGR, sequence (P09769 whole entry): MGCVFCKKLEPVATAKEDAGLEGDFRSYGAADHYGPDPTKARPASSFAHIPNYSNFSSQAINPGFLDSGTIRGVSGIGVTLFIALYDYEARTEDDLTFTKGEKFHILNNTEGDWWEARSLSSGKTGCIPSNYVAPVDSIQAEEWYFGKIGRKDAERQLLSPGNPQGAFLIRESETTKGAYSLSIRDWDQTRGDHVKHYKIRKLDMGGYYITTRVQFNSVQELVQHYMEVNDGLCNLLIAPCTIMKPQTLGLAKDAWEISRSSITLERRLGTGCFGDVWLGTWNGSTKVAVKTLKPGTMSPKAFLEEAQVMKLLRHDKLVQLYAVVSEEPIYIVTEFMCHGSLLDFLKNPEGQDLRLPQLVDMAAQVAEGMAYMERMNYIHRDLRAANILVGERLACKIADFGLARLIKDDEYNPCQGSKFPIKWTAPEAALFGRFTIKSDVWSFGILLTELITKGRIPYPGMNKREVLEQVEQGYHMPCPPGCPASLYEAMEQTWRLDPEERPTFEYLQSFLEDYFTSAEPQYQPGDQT
smiles,measurement,setting,value
c1ccc2c(c1)Sc1ccccc1N2CCN1CCOCC1 [J54],remaining binding,ASK1,98%
same,remaining binding,CDC2L2,100%
same,remaining binding,DAPK2,97%
same,remaining binding,EGFR(E746-A750del),76%
same,remaining binding,"EGFR(L747-T751del,Sins)",92%
same,remaining binding,FGR,100%
same,remaining binding,HIPK4,90%
same,remaining binding,LYN,98%
same,remaining binding,MAPKAPK2,100%
same,remaining binding,MET(Y1235D),80%
same,remaining binding,MKK7,79%
same,remaining binding,NDR1,100%
same,remaining binding,NIM1,100%
same,remaining binding,PAK1,93%
same,remaining binding,PIK3CB,100%
same,remaining binding,PIM3,47%
same,remaining binding,RET,98%
same,remaining binding,TAOK3,100%

# — paper PMC7486443, “Generation of Phenothiazine with Potent Anti-TLK1 Activity for Prostate Cancer Therapy” (iScience, 2020)
